Test [1] deals with B-Raf (Homo sapiens, UniProt P15056). As to the kind of experiment: Luciferase-coupled chemiluminescence kinase assay (ATP consumption), B-Raf. Type of test: biochemical. As for the experimental part:
(§1) Tyrosine kinase activity is determined by 1) measurement of kinase-dependent ATP consumption by in the presence of a generic substrate such as […], tyrosine (pEY), by luciferase/luciferin-mediated chemiluminescence or; 2) incorporation of radioactive phosphate derived from ^33P-ATP into a generic substrate which has been adsorbed onto the well surface of polystyrene microtiter plates. Phosphorylated substrate products are quantified by scintillation spectrometry.
(§2) Luciferase-Coupled Chemiluminescence Assay Protocol
(§3) Kinase activity is measured as the percent of ATP consumed following the kinase reaction using luciferase-luciferin-coupled chemiluminescence. Reactions were conducted in 384-well white, medium binding microtiter plates (Greiner). Kinase reactions were initiated by combining test compounds, ATP and kinase in a 20 uL volume. The reaction mixture was incubated at ambient temperature for 3 hrs. For c-Raf, B-Raf, and B-RafV599E, […] of the enzyme was pre-incubated with compound in 20 mM Tris pH 7.5, 10 mM MgCl2, 0.03% TX-100, and 1 mM DTT for 30 minutes at room temperature. Following the kinase reaction, a 20 μL aliquot of luciferase-luciferin mix was added and the chemiluminescence signal measured using a Victor^2 plate reader (Perkin Elmer). The luciferase-luciferin mix contained 50 mM HEPES, pH 7.8, 67 mM oxalic acid (pH 7.8), 5 (or 50) mM DTT, 0.4% Triton X-100, 0.25 mg/mL coenzyme A, 63 μM AMP, 28 μg/mL luciferin and 40,000 units/mL luciferase. Total ATP consumption was limited to 25-60% and the IC50 values correlate well with those determined by radiometric assays.

For test [2], the target named is c-Raf (Homo sapiens, UniProt P04049). Nature of the test: Luciferase-coupled chemiluminescence kinase assay (ATP consumption), c-Raf. It is filed as biochemical. As for the experimental part: as §1, §2, §3
[3] abbreviates: read-out: bRaf (inhibition indicated as IC50).
[4] abbreviates: read-out: cRaf-1 (inhibition indicated as IC50).

The record followed here is US7846959B2, “Raf modulators and methods of use” (Exelixis, Inc., priority 2004, dated 2010).

Read-outs that look alike come from different tables or passages of the source. Bounds are passed on as bounds.

Chain of c-Raf (P04049 whole entry): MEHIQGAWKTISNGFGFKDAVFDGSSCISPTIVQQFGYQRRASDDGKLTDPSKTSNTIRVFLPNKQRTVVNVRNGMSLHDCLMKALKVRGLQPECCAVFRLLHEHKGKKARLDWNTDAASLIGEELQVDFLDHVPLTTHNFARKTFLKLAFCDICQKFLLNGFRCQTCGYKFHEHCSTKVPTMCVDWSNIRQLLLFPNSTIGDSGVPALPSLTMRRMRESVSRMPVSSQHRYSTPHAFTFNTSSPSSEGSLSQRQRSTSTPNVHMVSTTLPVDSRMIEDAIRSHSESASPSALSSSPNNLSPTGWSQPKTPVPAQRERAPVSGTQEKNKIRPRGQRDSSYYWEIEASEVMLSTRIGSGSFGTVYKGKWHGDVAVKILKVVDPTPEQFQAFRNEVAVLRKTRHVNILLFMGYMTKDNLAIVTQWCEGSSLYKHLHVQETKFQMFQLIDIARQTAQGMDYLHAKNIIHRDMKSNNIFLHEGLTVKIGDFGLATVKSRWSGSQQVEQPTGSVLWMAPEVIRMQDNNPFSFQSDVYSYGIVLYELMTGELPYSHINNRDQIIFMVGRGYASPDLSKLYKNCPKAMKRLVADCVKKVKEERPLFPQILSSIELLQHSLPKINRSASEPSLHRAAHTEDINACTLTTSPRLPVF
Chain of B-Raf (P15056 whole entry): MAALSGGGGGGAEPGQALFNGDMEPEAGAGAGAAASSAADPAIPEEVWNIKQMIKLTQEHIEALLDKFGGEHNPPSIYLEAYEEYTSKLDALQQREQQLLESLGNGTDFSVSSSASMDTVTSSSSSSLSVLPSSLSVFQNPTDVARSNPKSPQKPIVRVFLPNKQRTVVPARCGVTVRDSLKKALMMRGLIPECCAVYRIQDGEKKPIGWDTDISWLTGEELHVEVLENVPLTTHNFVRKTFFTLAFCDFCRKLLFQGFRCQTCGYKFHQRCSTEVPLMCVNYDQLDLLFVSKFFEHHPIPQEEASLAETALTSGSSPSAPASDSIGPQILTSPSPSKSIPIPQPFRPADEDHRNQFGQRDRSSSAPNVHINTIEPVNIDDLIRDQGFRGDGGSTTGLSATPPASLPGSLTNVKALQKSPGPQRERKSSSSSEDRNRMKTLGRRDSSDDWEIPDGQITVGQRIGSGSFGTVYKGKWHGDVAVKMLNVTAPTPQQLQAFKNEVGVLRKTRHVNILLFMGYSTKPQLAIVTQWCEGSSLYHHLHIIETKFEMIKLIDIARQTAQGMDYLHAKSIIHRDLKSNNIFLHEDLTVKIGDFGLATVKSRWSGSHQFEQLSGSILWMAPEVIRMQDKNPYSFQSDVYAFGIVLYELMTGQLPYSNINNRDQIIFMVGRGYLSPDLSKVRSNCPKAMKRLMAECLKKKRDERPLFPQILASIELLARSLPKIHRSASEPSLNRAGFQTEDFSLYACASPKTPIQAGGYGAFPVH

As for `COC(=O)Nc1nc2cc(C3(O)c4ccccc4C(=O)N3CC3CCCC3)ccc2[nH]1` (stereo not shown) [Entry 189, methyl {5-[2-(cyclopentylmethyl)-1-hydroxy-3-oxo-2,3-dihydro-1H-isoindol-1-yl]-1H-benzimidazol-2-yl}carbamate], the IC50 in test [1] (read-out: bRaf IC50) and in test [2] (read-out: cRaf-1 IC50) was less than 100 nM each time.

As to `CC(C)c1cccc(N2C(=O)c3ccccc3C2(O)c2ccc3c(c2)NC(=O)CO3)c1` (stereo not shown) [Entry 59, 6-{1-hydroxy-2-[3-(1-methylethyl)phenyl]-3-oxo-2,3-dihydro-1H-isoindol-1-yl}-2H-1,4-benzoxazin-3(4H)-one], the IC50 in test [1] (read-out: bRaf IC50) and in test [2] (read-out: cRaf-1 IC50) was 100 to 1000 nM in each case. With `COC(=O)Nc1nc2cc(C3(O)c4ccccc4C(=O)N3c3cc(Cl)ccc3F)ccc2[nH]1` (stereo not shown) [Entry 197, methyl {5-[2-(5-chloro-2-fluorophenyl)-1-hydroxy-3-oxo-2,3-dihydro-1H-isoindol-1-yl]-1H-benzimidazol-2-yl}carbamate], the IC50 in test [1] (read-out: bRaf IC50) and in test [2] (read-out: cRaf-1 IC50) was less than 100 nM throughout. Take `COC(=O)Nc1nc2ccc(C(=O)c3ccccc3C(=O)Nc3cccc(Cl)c3)cc2[nH]1` [Entry 395, methyl {6-[(2-{[(3-chlorophenyl)amino]carbonyl}phenyl)carbonyl]-1H-benzimidazol-2-yl}carbamate]: the IC50 in test [1] (setting [3]) and in test [2] (setting [4]) was less than 100 nM throughout.

With `Nc1cc(Cl)cc(N2C(=O)c3ccccc3C2(O)c2ccc3c(c2)NC(=O)CO3)c1` (stereo not shown) [Entry 73, 6-[2-(3-amino-5-chlorophenyl)-1-hydroxy-3-oxo-2,3-dihydro-1H-isoindol-1-yl]-2H-1,4-benzoxazin-3(4H)-one], the IC50 in test [1] (read-out: bRaf IC50) and in test [2] (read-out: cRaf-1 IC50) was less than 100 nM throughout. As for `O=C(Nc1nc2ccc(C3(O)c4ccccc4C(=O)N3c3cccc(Cl)c3F)cc2[nH]1)OCC1CC2CCC(C1)N2` (stereo not shown) [Entry 312, 8-azabicyclo[3.2.1]oct-3-ylmethyl {6-[2-(3-chloro-2-fluorophenyl)-1-hydroxy-3-oxo-2,3-dihydro-1H-isoindol-1-yl]-1H-benzimidazol-2-yl}carbamate], the half-maximal inhibitory concentration (IC50) in test [1] (setting [3]) and in test [2] (setting [4]) was less than 100 nM in each case. Turning to `COC(=O)Nc1nc2cc(C3(O)c4ccccc4C(=O)N3c3cccc(C(C)=O)c3)ccc2[nH]1` (stereo not shown) [Entry 237, methyl {5-[2-(3-acetylphenyl)-1-hydroxy-3-oxo-2,3-dihydro-1H-isoindol-1-yl]-1H-benzimidazol-2-yl}carbamate], the IC50 in test [1] (read-out: bRaf IC50) and in test [2] (read-out: cRaf-1 IC50) was less than 100 nM each time. In the case of `COC(=O)Nc1nc2cc(C3(O)c4ccccc4C(=O)N3Cc3ccccc3Br)ccc2[nH]1` (stereo not shown) [Entry 130, methyl (5-{2-[(2-bromophenyl)methyl]-1-hydroxy-3-oxo-2,3-dihydro-1H-isoindol-1-yl}-1H-benzimidazol-2-yl)carbamate], the IC50 in test [1] (read-out: bRaf IC50) and in test [2] (read-out: cRaf-1 IC50) was 100 to 1000 nM in each case. As for `COC(=O)Nc1nc2cc(C3(O)c4ccccc4C(=O)N3c3c(F)cccc3F)ccc2[nH]1` (stereo not shown) [Entry 193, methyl {5-[2-(2,6-difluorophenyl)-1-hydroxy-3-oxo-2,3-dihydro-1H-isoindol-1-yl]-1H-benzimidazol-2-yl}carbamate], the IC50 in test [1] (read-out: bRaf IC50) and in test [2] (read-out: cRaf-1 IC50) was less than 100 nM in each case. As to `COC(=O)Nc1nc2cc(C3(O)c4c(F)cccc4C(=O)N3c3cc(Cl)ccc3C)ccc2[nH]1` (stereo not shown) [Entry 371, methyl {5-[2-(5-chloro-2-methylphenyl)-7-fluoro-1-hydroxy-3-oxo-2,3-dihydro-1H-isoindol-1-yl]-1H-benzimidazol-2-yl}carbamate], the IC50 in test [1] (setting [3]) and in test [2] (setting [4]) was less than 100 nM in each case. Consider `COC(=O)Nc1nc2ccc(C3(O)c4ccccc4C(=O)N3Cc3ccc(F)cc3)cc2[nH]1` (stereo not shown) [Entry 119, methyl (6-{2-[(4-fluorophenyl)methyl]-1-hydroxy-3-oxo-2,3-dihydro-1H-isoindol-1-yl}-1H-benzimidazol-2-yl)carbamate], for which the half-inhibitory concentration (IC50) in test [1] (read-out: bRaf IC50) and in test [2] (read-out: cRaf-1 IC50) was 100 to 1000 nM each time.

`COC(=O)Nc1nc2ccc(C(=O)c3ccccc3C(=O)Nc3cccc(I)c3)cc2[nH]1` [Entry 403, methyl {6-[(2-{[(3-iodophenyl)amino]carbonyl}phenyl)carbonyl]-1H-benzimidazol-2-yl}carbamate]: the IC50 (in general, the point on the concentration scale where inhibition reaches its midpoint) in test [1] (setting [3]) is less than 100 nM.

For `COC(=O)Nc1nc2ccc(C(=O)c3ccccc3C(=O)Nc3cccc(C(C)C)c3)cc2[nH]1` [Entry 404, methyl (6-{[2-({[3-(1-methylethyl)phenyl]amino}carbonyl)phenyl]carbonyl}-1H-benzimidazol-2-yl)carbamate], the IC50 in test [1] (setting [3]) was less than 100 nM. Take `C#Cc1cccc(NC(=O)c2ccccc2C(=O)c2ccc3nc(NC(=O)OC)[nH]c3c2)c1` [Entry 400, methyl {6-[(2-{[(3-ethynylphenyl)amino]carbonyl}phenyl)carbonyl]-1H-benzimidazol-2-yl}carbamate]: in test [1] (setting [3]), the IC50 is less than 100 nM.

With `COC(=O)Nc1nc2ccc(C(=O)c3ccccc3C(=O)Nc3cc(Br)ccc3F)cc2[nH]1` [Entry 409, methyl {6-[(2-{[(5-bromo-2-fluorophenyl)amino]carbonyl}phenyl)carbonyl]-1H-benzimidazol-2-yl}carbamate], the IC50 in test [1] (setting [3]) was less than 100 nM. Still for that read-out and setting: the same measure for `COC(=O)Nc1nc2ccc(C(=O)c3ccccc3C(=O)Nc3cccc(C)c3)cc2[nH]1` [Entry 393, methyl {6-[(2-{[(3-methylphenyl)amino]carbonyl}phenyl)carbonyl]-1H-benzimidazol-2-yl}carbamate]: less than 100 nM; for `CCc1cccc(NC(=O)c2ccccc2C(=O)c2ccc3nc(NC(=O)OC)[nH]c3c2)c1` [Entry 399, methyl {6-[(2-{[(3-ethylphenyl)amino]carbonyl}phenyl)carbonyl]-1H-benzimidazol-2-yl}carbamate]: less than 100 nM; for `COC(=O)Nc1nc2ccc(C(=O)c3ccccc3C(=O)Nc3cccc(F)c3)cc2[nH]1` [Entry 396, methyl {6-[(2-{[(3-fluorophenyl)amino]carbonyl}phenyl)carbonyl]-1H-benzimidazol-2-yl}carbamate]: less than 100 nM.

Consider `COC(=O)Nc1nc2ccc(C(=O)c3ccccc3C(=O)Nc3cc(Cl)ccc3C)cc2[nH]1` [Entry 415, methyl {6-[(2-{[(5-chloro-2-methylphenyl)amino]carbonyl}phenyl)carbonyl]-1H-benzimidazol-2-yl}carbamate], for which the 50% inhibitory concentration (IC50) in test [1] (setting [3]) was less than 100 nM. Still for that read-out and setting: the same measure for `COC(=O)Nc1nc2ccc(C(=O)c3ccccc3C(=O)Nc3cccc(I)c3F)cc2[nH]1` [Entry 417, methyl {6-[(2-{[(2-fluoro-3-iodophenyl)amino]carbonyl}phenyl)carbonyl]-1H-benzimidazol-2-yl}carbamate]: less than 100 nM. Still for that read-out and setting: the same measure for `COC(=O)Nc1nc2ccc(C(=O)c3ccccc3C(=O)Nc3cccc(Br)c3F)cc2[nH]1` [Entry 412, methyl {6-[(2-{[(3-bromo-2-fluorophenyl)amino]carbonyl}phenyl)carbonyl]-1H-benzimidazol-2-yl}carbamate]: less than 100 nM; for `COC(=O)Nc1nc2ccc(C(=O)c3ccccc3C(=O)NCc3ccsc3)cc2[nH]1` [Entry 405, methyl {6-[(2-{[(3-thienylmethyl)amino]carbonyl}phenyl)carbonyl]-1H-benzimidazol-2-yl}carbamate]: less than 100 nM; for `COC(=O)Nc1nc2ccc(C(=O)c3ccccc3C(=O)Nc3cc(Br)ccc3C)cc2[nH]1` [Entry 416, methyl {6-[(2-{[(5-bromo-2-methylphenyl)amino]carbonyl}phenyl)carbonyl]-1H-benzimidazol-2-yl}carbamate]: less than 100 nM.
